Each structure is given as a SMILES string. Converted amounts (≈) assume the structure as drawn. Structures can show the parent of a compound that is named as a salt. Where two headings read alike, the source gives them in different places. Bounds are passed on as bounds.

For assay [1], the system named is Phytophthora capsici. As to the kind of experiment: Potted fungicidal activity test, protective effect. Particulars: in vivo.
Another assay has as its system cowpea powdery mildew. As to the kind of experiment: Potted fungicidal activity test. Particulars: in vivo.
The test system of a further assay is Pyricularia oryzae. The assay is described as follows: microbe, parasite or virus in culture. In kind it is cell-based. Particulars: for inhibition at 50 µg/mL: read-out: Inhibition rate (%).
The subject of assay [2] is Colletotrichum gloeosporioiles. As to the kind of experiment: Mycelial growth rate method, in vitro fungicidal activity. In kind it is cell-based. The settings on record: C.G, 50 μg mL^−1; for inhibition at 50 µg/mL: Colletotrichum.
The test system of a further assay is Colletotrichum musae. The assay is described as above. The assay is classed as cell-based. The settings on record: C.M.
The subject of another assay is Gilbertella persicaria. Described as above. The assay is classed as cell-based. The settings on record: G.P.
The subject of the next assay is Fusarium graminearum. As to the kind of experiment: microbe, parasite or virus in culture. In kind it is cell-based. Particulars: for inhibition at 50 µg/mL: read-out: Inhibition rate (%).
For the next assay, the system named is Colletotrichum siamense. As to the kind of experiment: Mycelial growth rate method, in vitro fungicidal activity. In kind it is cell-based. Particulars: C.S, 50 μg mL^−1; for inhibition at 50 µg/mL: Colletotrichum siamense.
Another assay deals with Colletotrichum capsici. Described as above. The assay is classed as cell-based. Particulars: C.C, 50 μg mL^−1; for inhibition at 50 µg/mL: Colletotrichum truncatum.
The test system of assay [3] is Phytophthora capsici. The description is as above. In kind it is cell-based. Particulars: P.C.
The next assay relates to Rhizoctonia solani. The description is as above. The assay is classed as cell-based. The settings on record: R.S.
The test system of assay [4] is Neoscytalidium dimidiatum. Described as above. The assay is classed as cell-based. Particulars: N.D, 50 μg mL^−1; for inhibition at 50 µg/mL: Neoscytalidium dimidiatum.
The test system of a further assay is Cucumber downy mildew. As to the kind of experiment: Potted fungicidal activity test. In kind it is in vivo, Pseudoperonospora cubensis. The settings on record: for Control effect (%): potted, cucumber downy mildew.
The subject of another assay is potato late blight. In kind it is in vivo. Particulars: potted.
The mark [5] stands for this setting: Colletotrichum musae, 50 μg mL^−1.
Where [6] appears, read: Colletotrichum musae, read-out: EC50.
[7] abbreviates: Gilbertella persicaria, 50 μg mL^−1.
Setting [8] is: Gilbertella persicaria, read-out: EC50.
The mark [9] stands for this setting: Phytophthora capsici, 50 μg mL^−1.
The mark [10] stands for this setting: Phytophthora capsici, read-out: EC50.
Setting [11] is: Rhizoctonia solani, 50 μg mL^−1.
[12] abbreviates: Rhizoctonia solani, read-out: EC50.

On to `COc1ccc2cc3[n+](cc2c1OC)CCc1cc2c(cc1-3)OCO2` [Berberine hydrochloride], for which, in the assay with Phytophthora capsici [1], the “Control effect (%)” value was 80.0% and the “Disease index (±SD)” value worked out at 16.0 ± 2.0.
`CCCC1COC(Cn2cncn2)(c2ccc(Cl)cc2Cl)O1` (stereo not drawn) [Propiconazole]: in the assay on cowpea powdery mildew, the “Control effect (%)” value worked out at 100% and the “Disease index (±SD)” value is reported as 0 ± 0.0.
As to `COc1ccc2ccc(=O)oc2c1CC=C(C)C` [Osthole], the EC50 in the assay on Pyricularia oryzae (Pyricularia oryzae) is 11.5 ± 0.42 µg/mL (≈ 47.2 µM); with Colletotrichum musae (setting [6]), 9.18 ± 0.33 µg/mL (≈ 37.6 µM); in the assay on Gilbertella persicaria (setting [8]), 11.4 ± 0.51 µg/mL (≈ 46.7 µM); with Fusarium graminearum (Fusarium graminearum) it was 21.4 ± 0.61 µg/mL (≈ 87.7 µM); in the assay with Phytophthora capsici [3] (setting [10]) it was 52.59 ± 0.27 µg/mL (≈ 215 µM); in the assay on Rhizoctonia solani (setting [12]), 16 ± 1.39 µg/mL (≈ 65.6 µM). Further, the inhibition at 50 µg/mL was 89.1% with Pyricularia oryzae (Pyricularia oryzae); 56.9% in [2]; 93.3% in the assay with Colletotrichum musae (setting [5]); 94.3% with Gilbertella persicaria (setting [7]); 65.1% in the assay with Fusarium graminearum (Fusarium graminearum); 37.7% with Colletotrichum siamense. Also, the inhibition at 50 µg/mL is 4.8% in the assay on Colletotrichum capsici, 55.7% in the assay on Phytophthora capsici [3] (setting [9]), 75.8% in the assay on Rhizoctonia solani (setting [11]) and 68.2% in assay [4].
`CO/C=C(/C(=O)OC)c1ccccc1Oc1cc(Oc2ccccc2C#N)ncn1` [Azoxystrobin]: the EC50 in the assay on Pyricularia oryzae (P.O) is 17.89 ± 0.14 µg/mL (≈ 44.3 µM); in the assay with Colletotrichum musae it was 52.51 ± 0.42 µg/mL (≈ 130 µM); in the assay on Gilbertella persicaria, 39.09 ± 0.05 µg/mL (≈ 96.9 µM); in the assay with Fusarium graminearum (F.G), 5.27 ± 0.21 µg/mL (≈ 13.1 µM); with Phytophthora capsici [3] it was 18.81 ± 0.31 µg/mL (≈ 46.6 µM); in the assay with Rhizoctonia solani, <0.06 ± 0.12 µg/mL. In addition, the “Inhibition rate (%)” value with Pyricularia oryzae (P.O, 50 μg mL^−1) was 57.8%; in [2], 52.5%; in the assay on Colletotrichum musae (50 μg mL^−1) it was 51.2%; with Gilbertella persicaria (50 μg mL^−1), 57.2%; with Fusarium graminearum (F.G, 50 μg mL^−1), 65.7%; with Colletotrichum siamense, 60.9%. For the same compound, the “Inhibition rate (%)” value in the assay on Colletotrichum capsici is recorded as 41.27%; in the assay on Phytophthora capsici [3] (50 μg mL^−1), 69.9%; in the assay on Rhizoctonia solani (50 μg mL^−1), 73.1%; in assay [4], 51.2%.
In the case of `O=C(OC[C@]1(O)C(=O)C=C[C@H](OC(=O)c2ccccc2)[C@H]1O)c1ccccc1` [zeylenone], the “control effect on cucumber downy mildew compared with Cyazofamid” value in the assay on Cucumber downy mildew (potted fungicidal activity test, in words) is “equivalent to that of the chemical fungicide Cyazofamid”. Moreover, the “Control effect (%)” value with Cucumber downy mildew (6.25 μg mL^−1) turned out to be 25 ± 1.0%; with Cucumber downy mildew (12.5 μg mL^−1), 70 ± 3.0%; in the assay with Cucumber downy mildew (25 μg mL^−1), 88 ± 1.7%; in the assay on Cucumber downy mildew (50 μg mL^−1) it was 99 ± 2.0%; in the assay with potato late blight (6.25 μg mL^−1), 0 ± 0.0%; in the assay on potato late blight (12.5 μg mL^−1) it was 0 ± 0.0%. Besides, the “Control effect (%)” value turned out to be 0 ± 0.0% in the assay with potato late blight (25 μg mL^−1) and 20 ± 2.0% with potato late blight (50 μg mL^−1). Further, the EC50 in the assay on Pyricularia oryzae (Pyricularia oryzae) was 21.38 ± 0.14 µg/mL (≈ 55.9 µM); with Colletotrichum musae (setting [6]) it was 3.37 µg/mL (≈ 8.81 µM); in the assay on Gilbertella persicaria (setting [8]), 17.3 ± 2.29 µg/mL (≈ 45.2 µM); in the assay with Fusarium graminearum (Fusarium graminearum), 22.94 ± 0.11 µg/mL (≈ 60 µM); in the assay on Phytophthora capsici [3] (setting [10]), 6.98 µg/mL (≈ 18.3 µM); in the assay with Rhizoctonia solani (setting [12]) it was 4.91 ± 0.12 µg/mL (≈ 12.8 µM). The inhibition at 50 µg/mL in the assay on Pyricularia oryzae (Pyricularia oryzae) amounted to 66.2%; in [2] it was 45%; in the assay with Colletotrichum musae (setting [5]) it was 84.3%; in the assay on Gilbertella persicaria (setting [7]), 77.6%; with Fusarium graminearum (Fusarium graminearum) it was 52.5%; in the assay on Colletotrichum siamense it was 43.5%. In addition, the inhibition at 50 µg/mL came out at 34.4% with Colletotrichum capsici, 88.1% in the assay with Phytophthora capsici [3] (setting [9]), 76.8% in the assay on Rhizoctonia solani (setting [11]) and 43.8% in [4].
Regarding `COc1ccc(C(=CC(=O)N2CCOCC2)c2ccc(Cl)cc2)cc1OC` [Dimethomorph], in the assay with Phytophthora capsici [1], the “Control effect (%)” value came out at 100.0% and the “Disease index (±SD)” value came to 0.0 ± 0.0.

As a reminder, the EC50 is the concentration needed to bring the measured effect to its halfway point. What is called inhibition is the relative decrease from the control value, in per cent.

(Values after patent US20240074442A1, “UVARIA GRANDIFLORA EXTRACT AS A BOTANICAL FUNGICIDE, PREPARATION METHOD THEREFOR, AND APPLICATION THEREOF” (HAINAN UNIVERSITY, priority 2021, published 2024).)
